Key:
[1] = target: T1, HiBit-BRM fusion protein (Homo sapiens, UniProt P51531); assay: HiBiT-BRM cell-based degradation assay (Nano-Glo HiBiT Lytic Detection, 24 h); conditions: HeLa cells expressing HiBiT-BRM; for DC50: read-out: BRM HiBit Degradation IC50; for BRM HiBit Degradation Maximum measured: top dose 30 μM
T1 construct: expressed in transfected cells
Summary of the method: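 Percent BRM loss was derived from HiBiT luminescence relative to DMSO-treated cells and cells given 2 μM of a known BRM/BRG1 degrader. Treatment lasted 24 h in HiBiT-BRM HeLa cells, with a top final concentration of 30 μM.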

[2] = target: T2, HiBit-BRG1 fusion protein (Homo sapiens, UniProt P51532); assay: HiBiT-BRG1 cell-based degradation assay (Nano-Glo HiBiT Lytic Detection, 24 h); conditions: HeLa cells expressing HiBit-BRG1 and LgBit; for DC50: read-out: BRG1 HiBit Degradation IC50; for Dmax: HeLa, top dose 30 μM, read-out: BRG1 HiBit Degradation Maximum measured
T2 construct: expressed in transfected cells
T2 sequence (P51532 whole entry, the tested form may be a part): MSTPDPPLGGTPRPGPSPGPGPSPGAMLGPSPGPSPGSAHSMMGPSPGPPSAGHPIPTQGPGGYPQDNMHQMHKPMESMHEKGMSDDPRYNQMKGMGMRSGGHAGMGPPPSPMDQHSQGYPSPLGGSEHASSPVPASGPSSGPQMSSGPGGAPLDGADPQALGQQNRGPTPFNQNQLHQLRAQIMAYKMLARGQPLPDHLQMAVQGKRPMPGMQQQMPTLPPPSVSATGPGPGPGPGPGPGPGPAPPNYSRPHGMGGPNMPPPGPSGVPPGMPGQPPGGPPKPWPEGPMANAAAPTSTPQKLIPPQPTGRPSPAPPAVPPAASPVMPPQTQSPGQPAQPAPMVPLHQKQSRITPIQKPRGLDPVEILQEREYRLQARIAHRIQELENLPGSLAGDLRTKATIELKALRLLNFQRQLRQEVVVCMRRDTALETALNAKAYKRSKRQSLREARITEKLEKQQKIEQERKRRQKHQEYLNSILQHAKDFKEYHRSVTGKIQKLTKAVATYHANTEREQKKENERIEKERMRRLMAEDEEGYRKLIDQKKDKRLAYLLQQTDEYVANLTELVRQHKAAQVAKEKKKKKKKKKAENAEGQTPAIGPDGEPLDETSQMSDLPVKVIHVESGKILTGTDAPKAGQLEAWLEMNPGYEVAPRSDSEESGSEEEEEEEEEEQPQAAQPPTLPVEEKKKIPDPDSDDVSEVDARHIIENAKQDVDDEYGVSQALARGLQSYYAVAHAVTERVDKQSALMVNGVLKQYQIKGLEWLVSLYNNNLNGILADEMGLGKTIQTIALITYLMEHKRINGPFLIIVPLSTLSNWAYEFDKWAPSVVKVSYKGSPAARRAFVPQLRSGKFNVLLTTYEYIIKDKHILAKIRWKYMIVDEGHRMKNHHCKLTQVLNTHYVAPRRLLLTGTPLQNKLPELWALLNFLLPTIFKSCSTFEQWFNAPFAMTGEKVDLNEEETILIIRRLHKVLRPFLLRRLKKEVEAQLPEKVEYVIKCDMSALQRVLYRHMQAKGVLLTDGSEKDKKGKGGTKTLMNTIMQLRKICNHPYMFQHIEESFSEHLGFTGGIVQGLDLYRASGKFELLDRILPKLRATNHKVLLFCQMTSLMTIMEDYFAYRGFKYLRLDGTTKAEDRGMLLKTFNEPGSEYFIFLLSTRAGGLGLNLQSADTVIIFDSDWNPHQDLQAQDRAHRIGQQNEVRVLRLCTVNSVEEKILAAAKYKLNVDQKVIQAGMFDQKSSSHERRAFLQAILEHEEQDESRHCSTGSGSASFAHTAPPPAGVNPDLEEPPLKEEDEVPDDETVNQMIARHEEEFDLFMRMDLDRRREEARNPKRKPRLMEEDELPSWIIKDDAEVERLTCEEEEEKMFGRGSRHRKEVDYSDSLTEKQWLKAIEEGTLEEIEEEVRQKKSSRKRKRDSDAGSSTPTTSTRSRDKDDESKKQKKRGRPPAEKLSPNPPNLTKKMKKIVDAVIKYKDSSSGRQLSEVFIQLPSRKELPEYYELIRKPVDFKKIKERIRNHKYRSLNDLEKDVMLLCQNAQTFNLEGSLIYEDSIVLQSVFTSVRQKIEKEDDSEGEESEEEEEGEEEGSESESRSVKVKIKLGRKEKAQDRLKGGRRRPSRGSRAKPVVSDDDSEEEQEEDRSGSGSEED
Summary of the method: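 Degradation is scaled from DMSO-treated cells (0%) to cells given 2 μM of a known BRM/BRG1 degrader (100%). HeLa cells stably carrying HiBiT-BRG1 plus LgBiT (5000/well) were lysed with Nano-Glo HiBiT detection reagent, shaken 10 min at RT, and luminescence read.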

T1 sequence (P51531 whole entry, the tested form may be a part): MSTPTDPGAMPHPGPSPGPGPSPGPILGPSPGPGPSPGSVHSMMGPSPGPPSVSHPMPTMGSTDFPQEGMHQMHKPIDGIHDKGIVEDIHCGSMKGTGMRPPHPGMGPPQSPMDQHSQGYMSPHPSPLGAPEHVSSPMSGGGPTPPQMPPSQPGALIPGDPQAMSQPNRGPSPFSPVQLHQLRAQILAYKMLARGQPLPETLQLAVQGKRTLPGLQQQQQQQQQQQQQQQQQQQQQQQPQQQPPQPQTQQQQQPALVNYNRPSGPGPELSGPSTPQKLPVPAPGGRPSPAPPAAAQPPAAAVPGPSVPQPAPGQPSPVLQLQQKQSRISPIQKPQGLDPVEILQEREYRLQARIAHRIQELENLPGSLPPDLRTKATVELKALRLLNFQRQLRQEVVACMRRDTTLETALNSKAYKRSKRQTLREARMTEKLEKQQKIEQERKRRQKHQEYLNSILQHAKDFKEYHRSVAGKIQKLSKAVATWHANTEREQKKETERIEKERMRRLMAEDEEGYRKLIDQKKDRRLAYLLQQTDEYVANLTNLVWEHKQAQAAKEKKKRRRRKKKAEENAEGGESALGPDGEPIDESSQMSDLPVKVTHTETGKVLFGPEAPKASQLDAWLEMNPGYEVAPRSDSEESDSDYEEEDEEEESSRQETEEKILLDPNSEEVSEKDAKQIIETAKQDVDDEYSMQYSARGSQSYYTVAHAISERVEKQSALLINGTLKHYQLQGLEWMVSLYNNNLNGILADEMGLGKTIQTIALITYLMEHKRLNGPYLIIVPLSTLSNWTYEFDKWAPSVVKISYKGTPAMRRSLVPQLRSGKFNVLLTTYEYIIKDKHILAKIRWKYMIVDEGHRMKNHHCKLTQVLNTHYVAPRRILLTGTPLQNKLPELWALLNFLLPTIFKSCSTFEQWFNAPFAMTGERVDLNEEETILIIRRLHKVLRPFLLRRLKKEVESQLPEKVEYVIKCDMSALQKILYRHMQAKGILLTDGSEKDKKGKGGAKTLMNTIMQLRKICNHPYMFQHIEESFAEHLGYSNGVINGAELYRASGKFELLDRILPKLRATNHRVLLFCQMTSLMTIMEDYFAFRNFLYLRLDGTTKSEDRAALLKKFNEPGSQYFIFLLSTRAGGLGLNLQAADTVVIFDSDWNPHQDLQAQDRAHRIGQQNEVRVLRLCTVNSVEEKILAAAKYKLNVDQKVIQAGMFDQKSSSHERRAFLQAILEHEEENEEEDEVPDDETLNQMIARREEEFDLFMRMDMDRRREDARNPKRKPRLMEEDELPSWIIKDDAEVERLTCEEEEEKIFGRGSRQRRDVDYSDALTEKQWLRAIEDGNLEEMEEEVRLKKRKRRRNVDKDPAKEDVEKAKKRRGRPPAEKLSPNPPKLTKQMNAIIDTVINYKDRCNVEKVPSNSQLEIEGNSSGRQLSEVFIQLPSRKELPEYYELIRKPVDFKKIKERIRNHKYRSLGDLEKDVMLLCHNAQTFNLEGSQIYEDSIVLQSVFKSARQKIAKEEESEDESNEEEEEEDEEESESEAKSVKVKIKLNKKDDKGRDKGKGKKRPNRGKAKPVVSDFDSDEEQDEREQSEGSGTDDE

Row | SMILES | DC50 [1] | BRM HiBit Degradation Maximum measured [1] | DC50 [2] | Dmax [2]
1 | CN(CCNC(=O)c1ccc(COCC(NC(=O)c2ccn(S(C)(=O)=O)c2)C(=O)Nc2nc(-c3ccccc3)cs2)cc1)CCNc1cccc2c1C(=O)N(C1CCC(=O)NC1=O)C2=O [Compound 244, (N-[2-[(2-[[2-(2,6-dioxopiperidin-3-yl)-1,3-dioxoisoindol-4-yl]amino]ethyl)(methyl)amino]ethyl]-4-[[(2S)-2-[(1-methanesulfonylpyrrol-3-yl)formamido]-2-[(4-phenyl-1,3-thiazol-2-yl)carbamoyl]ethoxy]methyl]benzamide] | > 10 µM | C (‘C’ = Maximum degradation <50%) | > 10 µM | < 50%
2 | CS(=O)(=O)n1ccc(C(=O)N[C@@H](COCCCC(=O)NCCOc2ccc3c(c2)C(=O)N(C2CCC(=O)NC2=O)C3=O)C(=O)Nc2nc(-c3ccccc3)cs2)c1 (some centres unmarked) [Compound 228] | > 10 µM | C (‘C’ = Maximum degradation <50%) | > 10 µM | < 50%
3 | Cc1ncsc1-c1ccc(CNC(=O)[C@@H]2C[C@@H](O)CN2C(=O)[C@@H](NC(=O)COCCOCCOCCNC(=O)C2(c3cc(-c4cccc(-c5csc(NC(=O)CNC(=O)c6ccn(S(C)(=O)=O)c6)n5)c4)ccn3)CC2)C(C)(C)C)cc1 [Compound 110, N-[2-[[4-[3-[2-[1-[2-[2-[2-[2-[[(1S)-1-[(2S,4R)-4-hydroxy-2-[[4-(4-methylthiazol-5-yl)phenyl]methylcarbamoyl]pyrrolidine-1-carbonyl]-2,2-dimethyl-propyl]amino]-2-oxo-ethoxy]ethoxy]ethoxy]ethylcarbamoyl]-cyclopropyl]-4-pyridyl]phenyl]thiazol-2-yl]amino]-2-oxo-ethyl]-1-methylsulfonyl-pyrrole-3-carboxamide] | 0.1 to 1 µM | B (‘B’ = Maximum degradation ≥50% and ≤75%) | 0.1 to 1 µM | > 75%
4 | CS(=O)(=O)n1ccc(C(=O)NCC(=O)Nc2nc(-c3cccc(-c4ccnc(C5(C(=O)NCCCCCCNc6ccc7c(c6)C(=O)N(C6CCC(=O)NC6=O)C7=O)CC5)c4)c3)cs2)c1 (centres unmarked) [Compound 104, N-[2-[[4-[3-[2-[1-[6-[[2-(2,6-dioxo-3-piperidyl)-1,3-dioxo-isoindolin-5-yl]amino]hexylcarbamoyl]cyclopropyl]-4-pyridyl]phenyl]thiazol-2-yl]amino]-2-oxo-ethyl]-1-methylsulfonyl-pyrrole-3-carboxamide] | < 0.1 µM | A (‘A’ = Maximum degradation >75%) | < 0.1 µM | > 75%
5 | Cc1ncsc1-c1ccc(CNC(=O)[C@@H]2C[C@@H](O)CN2C(=O)[C@@H](NC(=O)CCCC(=O)NCc2cccc(-c3cccc(-c4csc(NC(=O)CNC(=O)c5ccn(S(C)(=O)=O)c5)n4)c3)c2)C(C)(C)C)cc1 [Compound 56, N′-[(1S)-1-[(2S,4R)-4-hydroxy-2-[[4-(4-methylthiazol-5-yl)phenyl]methylcarbamoyl]pyrrolidine-1-carbonyl]-2,2-dimethyl-propyl]-N-[[3-[3-[2-[[2-[(1-methylsulfonylpyrrole-3-carbonyl)amino]acetyl]amino]thiazol-4-yl]phenyl]phenyl]methyl]pentanediamide] | > 10 µM | C (‘C’ = Maximum degradation <50%) | > 10 µM | < 50%
6 | Cc1ncsc1-c1ccc(CNC(=O)[C@@H]2C[C@@H](O)CN2C(=O)[C@@H](NC(=O)CCCCCCCNC(=O)C2(c3cc(-c4cccc(-c5csc(NC(=O)CNC(=O)c6ccn(S(C)(=O)=O)c6)n5)c4)ccn3)CC2)C(C)(C)C)cc1 [Compound 99, N-(2-((4-(3-(2-(1-((8-(((S)-1-((2S,4R)-4-hydroxy-2-((4-(4-methylthiazol-5-yl)benzyl)carbamoyl)pyrrolidin-1-yl)-3,3-dimethyl-1-oxobutan-2-yl)amino)-8-oxooctyl)carbamoyl)cyclopropyl)-pyridin-4-yl)phenyl)thiazol-2-yl)amino)-2-oxoethyl)-1-(methylsulfonyl)-1H-pyrrole-3-carboxamide] | < 0.1 µM | A (‘A’ = Maximum degradation >75%) | < 0.1 µM | > 75%
7 | CS(=O)(=O)n1ccc(C(=O)N[C@@H](COCCCC(=O)NCCNc2ccc3c(c2)C(=O)N(C2CCC(=O)NC2=O)C3=O)C(=O)Nc2nc(-c3ccccc3)cs2)c1 (stereo partly drawn) [Compound 185, N-((2S)-3-(4-((2-((2-(2,6-dioxopiperidin-3-yl)-1,3-dioxoisoindolin-5-yl)amino)ethyl)amino)-4-oxobutoxy)-1-oxo-1-((4-phenylthiazol-2-yl)amino)propan-2-yl)-1-(methylsulfonyl)-1H-pyrrole-3-carboxamide] | > 10 µM | C (‘C’ = Maximum degradation <50%) | > 10 µM | < 50%
8 | CS(=O)(=O)n1ccc(C(=O)NCC(=O)Nc2nc(-c3cccc(-c4cccc(CNC(=O)CCCCCCCCNc5ccc6c(c5)C(=O)N(C5CCC(=O)NC5=O)C6=O)c4)c3)cs2)c1 (centres unmarked) [Compound 54, N-[2-[[4-[3-[3-[[9-[[2-(2,6-dioxo-3-piperidyl)-1,3-dioxo-isoindolin-5-yl]amino]nonanoylamino]methyl]-phenyl]phenyl]thiazol-2-yl]amino]-2-oxo-ethyl]-1-methylsulfonyl-pyrrole-3-carboxamide] | > 10 µM | C (‘C’ = Maximum degradation <50%) | > 10 µM | < 50%
9 | CS(=O)(=O)n1ccc(C(=O)N[C@@H](COCc2ccc(C(=O)N3CCN(CC4CN(c5ccc6c(c5)C(=O)N(C5CCC(=O)NC5=O)C6=O)C4)CC3)cc2)C(=O)Nc2nc(-c3ccccc3)cs2)c1.O=CO (stereo partly drawn) [Compound 231, (2S)-3-([4-[4-([1-[2-(2,6-dioxopiperidin-3-yl)-1,3-dioxoisoindol-5-yl]azetidin-3-yl]methyl)piperazine-1-carbonyl]phenyl]methoxy)-2-[(1-methanesulfonylpyrrol-3-yl)formamido]-N-(4-phenyl-1,3-thiazol-2-yl)propanamide; formic acid] | > 10 µM | C (‘C’ = Maximum degradation <50%) | > 10 µM | < 50%
10 | CS(=O)(=O)n1ccc(C(=O)N[C@@H](CCOCCCC(=O)NCCOCc2cccc(COCCOc3ccc4c(c3)C(=O)N(C3CCC(=O)NC3=O)C4=O)c2)C(=O)Nc2nc(-c3ccccc3)cs2)c1 (stereo partly drawn) [Compound 261, (2S)-4-(3-[[2-([3-[(2-[[2-(2,6-dioxopiperidin-3-yl)-1,3-dioxoisoindol-5-yl]oxy]ethoxy)methyl]phenyl]methoxy)ethyl]carbamoyl]propoxy)-2-[(1-methanesulfonylpyrrol-3-yl)formamido]-N-(4-phenyl-1,3-thiazol-2-yl)butanamide] | > 10 µM | C (‘C’ = Maximum degradation <50%) | > 10 µM | < 50%
11 | CS(=O)(=O)n1ccc(C(=O)NCC(=O)Nc2nc(-c3cccc(-c4ccnc(C5(C(=O)NCCNc6ccc7c(c6)C(=O)N(C6CCC(=O)NC6=O)C7=O)CC5)c4)c3)cs2)c1 (centres unmarked) [Compound 133, N-(2-[[2-(2,6-dioxopiperidin-3-yl)-1,3-dioxoisoindol-5-yl]amino]ethyl)-1-[4-[3-(2-[2-[(1-methanesulfonylpyrrol-3-yl)formamido]acetamido]-1,3-thiazol-4-yl)phenyl]pyridin-2-yl]cyclopropane-1-carboxamide] | 0.1 to 1 µM | B (‘B’ = Maximum degradation ≥50% and ≤75%) | < 0.1 µM | > 75%
12 | CS(=O)(=O)n1ccc(C(=O)NCC(=O)Nc2nc(-c3cccc(-c4cccc(CNC(=O)C5CC5CNC(=O)COc5ccc6c(c5)C(=O)N(C5CCC(=O)NC5=O)C6=O)c4)c3)cs2)c1 (centres unmarked) [Compound 61, N-[2-[[4-[3-[3-[[[2-[[[2-[2-(2,6-dioxo-3-piperidyl)-1,3-dioxo-isoindolin-5-yl]oxyacetyl]amino]methyl]-cyclopropanecarbonyl]amino]methyl]-phenyl]phenyl]thiazol-2-yl]amino]-2-oxo-ethyl]-1-methylsulfonyl-pyrrole-3-carboxamide] | 1 to 10 µM | B (‘B’ = Maximum degradation ≥50% and ≤75%) | 0.1 to 1 µM | 50 to 75%
13 | CS(=O)(=O)n1ccc(C(=O)N[C@@H](CCCCNC(=O)CCOCCOCCOc2cccc3c2C(=O)N(C2CCC(=O)NC2=O)C3=O)C(=O)Nc2nc(-c3ccccc3)cs2)c1 (stereo partly drawn) [Compound 288, (2S)-6-[3-[2-(2-[[2-(2,6-dioxopiperidin-3-yl)-1,3-dioxoisoindol-4-yl]oxy]ethoxy)ethoxy]propanamido]-2-[(1-methanesulfonylpyrrol-3-yl)formamido]-N-(4-phenyl-1,3-thiazol-2-yl)hexanamide] | > 10 µM | C (‘C’ = Maximum degradation <50%) | > 10 µM | < 50%
14 | CS(=O)(=O)n1ccc(C(=O)NCC(=O)Nc2nc(-c3cccc(-c4ccnc(C5(C(=O)N6CC(CN7CCN(c8ccc9c(c8)C(=O)N(C8CCC(=O)NC8=O)C9=O)CC7)C6)CC5)c4)c3)cs2)c1 (centres unmarked) [Compound 156, N-[4-[3-(2-[1-[3-([4-[2-(2,6-dioxopiperidin-3-yl)-1,3-dioxoisoindol-5-yl]piperazin-1-yl]methyl)azetidine-1-carbonyl]cyclopropyl]pyridin-4-yl)phenyl]-1,3-thiazol-2-yl]-2-[(1-methanesulfonylpyrrol-3-yl)formamido]acetamide] | 0.1 to 1 µM | A (‘A’ = Maximum degradation >75%) | 0.1 to 1 µM | > 75%

— patent publication US12662479B2 (Foghorn Therapeutics Inc., priority 2020, dated 2026)
